Assay results from PMC6321145 (Molecules, 2018).

Legend:
Aβ1–42 = target: T1, Aβ1–42 (Homo sapiens, UniProt P05067); experiment: Inhibition of self-induced Aβ1–42 aggregation (ThT fluorescence assay); format: biochemical
T1 construct: Aβ1–42 (Sigma, St. Louis, MO, USA; counterion, NaOH) stock solution was prepared by dissolving Aβ1–42 peptide in ammonium hydroxide; purchased Sigma
Procedure: The formation and aggregation of Aβ1–42 in the brain leads to neurotoxicity in AD. In order to evaluate the activity of our new synthetic compounds to inhibit Aβ1–42 self-induced aggregation, the thioflavin (ThT) fluorescence assay was performed.
All ThT experiments were performed according to our previously published methods. Aβ1–42 (Sigma, St. Louis, MO, USA; counterion, NaOH) stock solution was prepared by dissolving Aβ1–42 peptide in ammonium hydroxide (1% v/v), and diluting with 20 mM phosphate buffer (pH 7.4) to 100 μM. The tested compounds were firstly dissolved in DMSO at a concentration of 10 mM, and then diluted with 20 mM phosphate buffer (pH 7.4) to 40 μM.
For the inhibition of self-induced Aβ1–42 aggregation. Aβ1–42 peptide (2 μL, 50 μM, final concentration) with the tested compound (2 μL, 20 μM, final concentration) or 20 mM phosphate buffer (2 μL) was incubated in 20 mM phosphate buffer (pH 7.4) at 37 °C for 72 h. After incubation, the samples were diluted to a final volume of 36 μL with 50 mM glycine-NaOH buffer (pH 8.5) containing 5 μM Thioflavin T. Fluorescence signal was measured (excitation wavelength 450 nm, emission wavelength 485 nm, and slit widths set to 5 nm) on a monochromator-based multimode microplate reader ([…] M1000, TECAN, Hombrechtikon, Switzerland), adapted for 384-well microtiter plates. […] Each compound was examined in triplicate.

[1] = Oxygen radical absorbance capacity with fluorescein (ORAC-FL) assay
Procedure: Oxidative stress is another crucial event in AD pathogenesis. In order to determine antioxidant activities of our synthetic compounds, the oxygen radical absorbance capacity method with fluorescein (ORAC-FL) assay was performed. with Trolox (6-hydroxy-2,5,7,8-tetramethylchroman-2-carboxylic acid) as the standard, and their antioxidant activity was expressed as Trolox equivalents.
The antioxidant activities of the compounds in vitro were determined by the oxygen radical absorbance capacity fluorescein (ORAC-FL) assay. The tested compounds and (±)-6-hydroxy-2,5,7,8-tetramethylchroman-2-carboxylic acid (Trolox) were dissolved in DMSO at a concentration of 10 mM, and then diluted with 75 mM potassium phosphate buffer (pH 7.4) to 50 μM and 10 μM for use. The fluorescein (FL) stock solution (3.4 mM) was diluted with the same buffer to 136 nM. All the assays were conducted with 75 mM potassium phosphate bufffer (pH 7.4), and the final reaction mixture was 200 μL.
The mixture of compounds (or buffer) (20 μL) and fluorescein (FL, 120 μL) were incubated for 15 min at 37 °C in a black 96-well plate. Then 2,2′-azobis-(amidino-propane)-dihydrochloride (AAPH) solution (60 μL, 40 mM) was rapidly added to the reaction mixture. The fluorescence was recorded every 5 min for 240 min at 485 nm (excitation wavelength) and 535 nm (emission wavelength) (Varioskan Flash Multimode Reader, Thermo Scientific, Waltham, MA, USA), and each sample was prepared and measured for three times independently. […] The net AUC for a sample was calculated using the expression net AUC = AUCsample − AUCblank, The ORAC-FL value of each sample was calculated using the equation of net AUCsample/(AUCTrolox – AUCblank), which was expressed as Trolox equivalents.

[2] = Cytotoxicity on SH-SY5Y cells (MTT); format: cell-based, human; details: human, SH-SY5Y neuroblastoma cells; MTT, 24 h; mean ± SEM of three measurements
Procedure: The cytotoxicity of our synthesized compounds was examined in human neuroblastoma SH-SY5Y cells. The cell viability was determined by using methyl thiazolyl tetrazolium (MTT) colorimetry, the cells were treated with different concentrations of compounds (0–100 μM). The result is shown in the Supplementary Materials (Table S1).
The cytotoxicities of the compounds were evaluated using the MTT assay. SH-SY5Y cells were subcultured in 96-well plates at a seeding density of 1 × 10^4 cells per well. After 24 h, the medium was removed and treated with different concentrations of tested compounds for 24 h at 37 °C. The survival of cells was determined with MTT assay. Then 80 μL of medium and 20 μL of MTT (0.5 mg/mL, final concentration) were added to each well and incubated for another 4 h. After the removal of MTT, the formazan crystals were dissolved in DMSO. The amount of formazan was measured using a microculture plate reader at the wavelength of 570 nm. Each concentration was performed in triplicate.

SH-SY5Y cells = experiment: Cellular ROS detection (DCFH-DA) in SH-SY5Y cells treated with t-BuOOH; format: cell-based, human; details: compound 2.5 μM; 0.1 mM t-BuOOH; compared with Trolox
Procedure: To further investigate their antioxidant activity in SH-SY5Y cells, cellular ROS detection assay based on dichlorofluorescein diacetate (DCFH-DA) was performed. with Trolox and N-acetyl-L-cysteine (NAC) as reference compounds.
SH-SY5Y cells were maintained in Dulbecco’s modified Eagle’s medium (DEME) and supplemented with 1 mM glutamine, 10% fetal calf serum, 100 U/mL penicillin, and 100 μg/mL streptomycin. The cultures were maintained at 37 °C in a humidified incubator containing 5% CO2 and were passaged twice weekly.
The antioxidant activity of the compounds in SH-SY5Y cells were tested with the fluorescent probe (2′,7′-dichlorofluorescein diacetate, DCFH-DA) as reported with some variation. SH-SY5Y cells were sub-cultured in 96-well plates at a seeding density of 1 × 10^4 cells per well for 24 h, then the medium was removed, the tested compounds (2.5 μM) was added and incubated for another 24 h at 37 °C. After that, the cells were washed with PBS and incubated with 5 μM DCFH-DA in PBS at 37 °C in 5% CO2 for 30 min. Then DCFH-DA was removed, the cells were washed three times and incubated with 0.1 mM t-BuOOH in PBS for 30 min. After the incubation, the cell fluorescence from each well was measured at 485 nm excitation and 535 nm emission with a monochromator based multimode microplate reader ([…] M1000).

[3] = inhibitor 20 μM, Aβ1–42 50 μM, ThT, 37 °C, 72 h, mean ± SD

T1 sequence (P05067 672-713): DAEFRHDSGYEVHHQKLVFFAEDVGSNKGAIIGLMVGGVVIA

SMILES: COc1cc(/C=C/C(=O)CC(=O)/C=C/c2ccc(O)c(OC)c2)ccc1O [Cur, curcumin, reference compound]
- Aβ1–42 Aggregation Inhibition (%) (Aβ1–42; [3]): 49.3 ± 1.2%

SMILES: CCN(CC)CCCNc1cc(/C=C/c2c[nH]c3ccccc23)nc2ccccc12 [Compound 6a3, (E)-N^1-(2-(2-(1H-Indol-3-yl)vinyl)quinolin-4-yl)-N^3,N^3-diethylpropane-1,3-diamine]
- ORAC ([1]; compound 1 μM): 1.26 ± 0.06 μmol of Trolox equivalents/μmol of tested compounds
- ORAC ([1]; compound 5 μM): 1.73 ±0.07 μmol of Trolox equivalents/μmol of tested compounds
- IC50 at 24 h [2]: 147.8 ± 0.3 µM
- inhibition at 20 µM (Aβ1–42; [3]): 84.3 ± 2.1%
- melting point: 194.3 to 195.1 °C

SMILES: CCN(CC)c1ccc(/C=C/c2cc(N3CCCCC3)c3ccccc3n2)cc1 [Compound 4b1, reference compound]
- ORAC ([1]; compound 1 μM): 3.70 ± 0.11 μmol of Trolox equivalents/μmol of tested compounds
- ORAC ([1]; compound 5 μM): 3.91 ± 0.11 μmol of Trolox equivalents/μmol of tested compounds
- inhibition at 20 µM (Aβ1–42; [3]): 83.5 ± 1.4%

SMILES: CC(C)CNc1cc(/C=C/c2ccc(N(C)C)cc2)nc2ccccc12 [Compound 6e2, (E)-2-(4-(Dimethylamino)styryl)-N-isobutylquinolin-4-amine]
- ORAC ([1]; compound 1 μM): 1.68 ± 0.06 μmol of Trolox equivalents/μmol of tested compounds
- ORAC ([1]; compound 5 μM): 1.78 ± 0.05 μmol of Trolox equivalents/μmol of tested compounds
- IC50 at 24 h [2]: 141.9 ± 0.5 µM
- inhibition at 20 µM (Aβ1–42; [3]): 77.5 ± 1.5%
- melting point: 171.8 to 173.2 °C

SMILES: Cc1c(C)c2c(c(C)c1O)CCC(C)(C(=O)O)O2 (stereo not drawn) [Trolox, 6-hydroxy-2,5,7,8-tetramethylchroman-2-carboxylic acid, reference compound]
- Antioxidant activity in SH-SY5Y cells (ROS generation, DCFH-DA fluorescence) (SH-SY5Y cells): decrease the intensity of fluorescence

SMILES: CCCCNc1cc(/C=C/c2ccc(N(C)C)cc2)nc2ccccc12 [Compound 6d2, (E)-N-Butyl-2-(4-(dimethylamino)styryl)quinolin-4-amine]
- ORAC ([1]; compound 1 μM): 0.75 ± 0.06 μmol of Trolox equivalents/μmol of tested compounds
- ORAC ([1]; compound 5 μM): 0.95 ± 0.09 μmol of Trolox equivalents/μmol of tested compounds
- IC50 at 24 h [2]: 112.4 ± 0.6 µM
- inhibition at 20 µM (Aβ1–42; [3]): 79.2 ± 2.3%
- melting point: 165.3 to 167.1 °C

SMILES: CCCCNc1cc(/C=C/c2ccc(N(CC)CC)cc2)nc2ccccc12 [Compound 6d1, (E)-N-Butyl-2-(4-(diethylamino)styryl)quinolin-4-amine]
- ORAC ([1]; compound 1 μM): 1.38 ± 0.02 μmol of Trolox equivalents/μmol of tested compounds
- ORAC ([1]; compound 5 μM): 1.56 ± 0.05 μmol of Trolox equivalents/μmol of tested compounds
- IC50 at 24 h [2]: 119.3 ± 0.7 µM
- inhibition at 20 µM (Aβ1–42; [3]): 80.5 ± 1.4%
- melting point: 172.5 to 173.8 °C

SMILES: CCN(CC)CCCNc1cc(/C=C/c2ccc(N3CCOCC3)cc2)nc2ccccc12 [Compound 6a4, (E)-N^1,N^1-Diethyl-N^3-(2-(4-morpholinostyryl)quinolin-4-yl)propane-1,3-diamine]
- Antioxidant activity in SH-SY5Y cells (ROS generation, DCFH-DA fluorescence) (SH-SY5Y cells): a little weaker antioxidant activity than Trolox
- ORAC ([1]; compound 1 μM): 4.16 ± 0.04 μmol of Trolox equivalents/μmol of tested compounds
- ORAC ([1]; compound 5 μM): 4.52 ± 0.03 μmol of Trolox equivalents/μmol of tested compounds
- IC50 at 24 h [2]: 145.2 ± 0.9 µM
- inhibition at 20 µM (Aβ1–42; [3]): 87.9 ± 1.1%
- melting point: 172.5 to 174.3 °C

SMILES: CC(=O)N[C@@H](CS)C(=O)O [NAC, N-acetyl-L-cysteine, reference compound]
- Antioxidant activity in SH-SY5Y cells (ROS generation, DCFH-DA fluorescence) (SH-SY5Y cells): didn’t remove ROS generation

SMILES: CCN(CC)c1ccc(/C=C/c2cc(NCC(C)C)c3ccccc3n2)cc1 [Compound 6e1, (E)-2-(4-(Diethylamino)styryl)-N-isobutylquinolin-4-amine]
- ORAC ([1]; compound 1 μM): 1.71 ± 0.05 μmol of Trolox equivalents/μmol of tested compounds
- ORAC ([1]; compound 5 μM): 1.92 ± 0.11 μmol of Trolox equivalents/μmol of tested compounds
- IC50 at 24 h [2]: 143.6 ± 0.7 µM
- inhibition at 20 µM (Aβ1–42; [3]): 77.9 ± 1.3%
- melting point: 170.2 to 171.7 °C

SMILES: CCN(CC)c1ccc(/C=C/c2cc(NCCN(C)C)c3ccccc3n2)cc1 [Compound 6c1, (E)-N^1-(2-(4-(Diethylamino)styryl)quinolin-4-yl)-N^2,N^2-dimethylethane-1,2-diamine]
- ORAC ([1]; compound 1 μM): 2.79 ± 0.04 μmol of Trolox equivalents/μmol of tested compounds
- ORAC ([1]; compound 5 μM): 3.24 ± 0.10 μmol of Trolox equivalents/μmol of tested compounds
- IC50 at 24 h [2]: 154.3 ± 0.5 µM
- inhibition at 20 µM (Aβ1–42; [3]): 85.1 ± 1.4%
- melting point: 145.2 to 147.1 °C

SMILES: CN(C)c1ccc(/C=C/c2cc(N3CCCCC3)c3ccccc3n2)cc1 [Compound 4b2, reference compound]
- ORAC ([1]; compound 1 μM): 2.91 ± 0.11 μmol of Trolox equivalents/μmol of tested compounds
- ORAC ([1]; compound 5 μM): 3.12 ± 0.10 μmol of Trolox equivalents/μmol of tested compounds
- inhibition at 20 µM (Aβ1–42; [3]): 81.2 ± 0.8%

SMILES: CCN(CC)CCCNc1cc(/C=C/c2ccc(N(C)C)cc2)nc2ccccc12 [Compound 6a2, (E)-N^1-(2-(4-(Dimethylamino)styryl)quinolin-4-yl)-N^3,N^3-diethylpropane-1,3-diamine]
- ORAC ([1]; compound 1 μM): 5.74 ± 0.09 μmol of Trolox equivalents/μmol of tested compounds
- IC50 at 24 h [2]: 187.5 ± 0.2 µM
- inhibition at 20 µM (Aβ1–42; [3]): 88.5 ± 1.5%
- melting point: 168.5 to 170.1 °C

SMILES: CN(C)CCCNc1cc(/C=C/c2ccc(N(C)C)cc2)nc2ccccc12 [Compound 6b2, (E)-N^1-(2-(4-(Dimethylamino)styryl)quinolin-4-yl)-N^3,N^3-dimethylpropane-1,3-diamine]
- ORAC ([1]; compound 1 μM): 5.61 ± 0.09 μmol of Trolox equivalents/μmol of tested compounds
- ORAC ([1]; compound 5 μM): 5.88 ± 0.01 μmol of Trolox equivalents/μmol of tested compounds
- IC50 at 24 h [2]: 228 µM
- IC50 (Aβ1–42; ThT fluorescence method, mean ± SD of three experiments, read-out: IC50 against self-induced Aβ1–42 aggregation): 6.1 ± 0.8 µM
- inhibition at 20 µM (Aβ1–42; [3]): 92.1 ± 1.3%
- melting point: 151.2 to 153.3 °C

SMILES: CN(C)CCNc1cc(/C=C/c2ccc(N(C)C)cc2)nc2ccccc12 [Compound 6c2, (E)-N^1-(2-(4-(Dimethylamino)styryl)quinolin-4-yl)-N^2,N^2-dimethylethane-1,2-diamine]
- ORAC ([1]; compound 1 μM): 3.28 ± 0.09 μmol of Trolox equivalents/μmol of tested compounds
- ORAC ([1]; compound 5 μM): 3.53 ± 0.07 μmol of Trolox equivalents/μmol of tested compounds
- IC50 at 24 h [2]: 127.5 ± 0.4 µM
- inhibition at 20 µM (Aβ1–42; [3]): 83.9 ± 2.4%
- melting point: 148.9 to 149.6 °C
